Assay results published in patent US10668159B2, “Anti-methanogenic compositions and uses thereof” (Cedars-Sinai Medical Center, priority 2014, dated 2020).

How the values were obtained:
[1] = pylorus-ligated rats, within 30 min; cited from earlier work
[2] = system: M. smithii; experiment: Lovastatin gavage in M. smithii colonized high-fat diet rats, qPCR of bowel segments; format: in vivo, Sprague-Dawley rats; conditions: 1.5 mg/rat gavaged daily for 10 days
Procedure: The rats were assessed for increased M. smithii by qPCR before and after the diet, and then divided into 3 groups. Group 1 was given lovastatin in its lactone form, Group 2 was given lovastatin hydroxy acid (each 1.5 mg/rat), and Group 3 was gavaged with a placebo. Each group was gavaged daily for 10 days. Three day stool collections were performed to assess average stool wet weight and daily variability prior to commencing the high fat diet, after 7 weeks of high-fat diet, and the final days of the lovastatin gavage (still on high-fat diet). On day 10 of the gavage, rats were euthanized and DNA was extracted from contents of ligated bowel segments (duodenum, jejunum, ileum, cecum and left colon). qPCR was performed using primers for total luminal bacteria and M. smithii.

[3] = after oral administration; cited from earlier work
[4] = system: human and rat fecal bacterial enzyme fractions; conditions: over a 12 h period; cited from earlier work
[5] = Binary stress testing of 1:1 lovastatin/excipient mixtures, HPLC; conditions: range of temperature and humidity conditions, 7 days
Procedure: The compatibility of lovastatin drug substance with formulation excipients was evaluated in binary stress testing studies where 1:1 mixtures of lovastatin and each excipient were stored for 7 days under different conditions of temperature and relative humidity (RH). Samples were analyzed by HPLC (based on USP methods) at day 0 and day 7.

Row | Compound | fraction of an intragastric dose that exited the gastric juice [1] [%] | M. smithii levels in the colon [2] | pre-portal hydrolysis in vivo [3] [%] | loss of lovastatin lactone [4] | stability in binary stress testing [5] | ratio of M. smithii to total bacteria in the ileum ([2]; versus placebo)
1 | CC[C@H](C)C(=O)O[C@H]1C[C@@H](C)C=C2C=C[C@H](C)[C@H](CC[C@@H](O)C[C@@H](O)CC(=O)O)[C@H]21 [lovastatin β-hydroxyacid] | ~30 | unaffected |  |  |  | 
2 | CC[C@H](C)C(=O)O[C@H]1C[C@@H](C)C=C2C=C[C@H](C)[C@H](CC[C@@H]3C[C@@H](O)CC(=O)O3)[C@H]21 [Lovastatin] | ~30 | unaffected | ~10 | 8-19% | stable | reduced
